One assay addresses T1, CdaR (Escherichia coli, UniProt P37047).
T1 sequence (P37047 1-385): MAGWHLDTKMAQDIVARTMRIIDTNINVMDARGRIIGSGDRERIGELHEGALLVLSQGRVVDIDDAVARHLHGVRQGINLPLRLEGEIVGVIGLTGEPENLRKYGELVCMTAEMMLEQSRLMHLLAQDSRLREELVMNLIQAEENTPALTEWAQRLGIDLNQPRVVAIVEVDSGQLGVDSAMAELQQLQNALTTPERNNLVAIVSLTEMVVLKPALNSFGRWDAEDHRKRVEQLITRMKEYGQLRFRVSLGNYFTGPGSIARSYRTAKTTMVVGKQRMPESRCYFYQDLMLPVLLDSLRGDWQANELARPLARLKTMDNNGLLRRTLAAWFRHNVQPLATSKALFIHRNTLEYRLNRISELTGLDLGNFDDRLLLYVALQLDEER
It is filed as cell-based. Conditions: high-copy plasmid, LB, 37°C; extracellular inducer; activation; lumped parameter of uptake, DNA binding and Kd, not a pure affinity; read-out: Half maximal parameter.

The target of another assay is TetR (Escherichia coli, UniProt P04483). It is filed as cell-based. As to conditions: high-copy plasmid, LB, 37°C; extracellular inducer; induction (derepression); lumped parameter of uptake, DNA binding and Kd, not a pure affinity; read-out: Half maximal parameter.
Chain of TetR (P04483 whole entry, looked up): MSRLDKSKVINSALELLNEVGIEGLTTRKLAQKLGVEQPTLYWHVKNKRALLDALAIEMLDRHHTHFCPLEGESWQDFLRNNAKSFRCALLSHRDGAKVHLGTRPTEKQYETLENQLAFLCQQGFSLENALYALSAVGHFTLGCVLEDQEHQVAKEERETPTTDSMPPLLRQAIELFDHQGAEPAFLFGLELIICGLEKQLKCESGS

On to `O=C(O)[C@@H](O)[C@@H](O)[C@H](O)[C@@H](O)C(=O)O` [glucarate], for which, at CdaR, the EC50 is 490 ± 60 µM.

Take `Cc1c2c(c(O)c3c(O)cccc13)C(=O)[C@]1(O)C(=O)C(C(N)=O)=C(O)[C@@H](N(C)C)[C@@H]1C2` [anhydrotetracycline]: the EC50 at TetR was found to be 0.081 ± 0.001 µM.

The record behind these values is paper PMC4551912, “Synthetic biosensors for precise gene control and real-time monitoring of metabolites” (Nucleic Acids Research, 2015).
